Laboratory results as given in patent publication US5969017A, “Methods of treating or preventing cardiac arrhythmia” (Merck & Co., Inc., priority 1997, dated 1999).

Legend:
Assay type in all cases: cell-based
[1] = target: T1, IKr (Cavia porcellus, UniProt O08703); assay: Voltage clamp block of IKr in guinea pig ventricular myocytes; conditions: guinea pig ventricle
T1 construct: Guinea pig ventricular myocytes were isolated; endogenous in cells; host or cells: isolated guinea pig ventricular myocytes
T1 sequence (O08703 1-1294): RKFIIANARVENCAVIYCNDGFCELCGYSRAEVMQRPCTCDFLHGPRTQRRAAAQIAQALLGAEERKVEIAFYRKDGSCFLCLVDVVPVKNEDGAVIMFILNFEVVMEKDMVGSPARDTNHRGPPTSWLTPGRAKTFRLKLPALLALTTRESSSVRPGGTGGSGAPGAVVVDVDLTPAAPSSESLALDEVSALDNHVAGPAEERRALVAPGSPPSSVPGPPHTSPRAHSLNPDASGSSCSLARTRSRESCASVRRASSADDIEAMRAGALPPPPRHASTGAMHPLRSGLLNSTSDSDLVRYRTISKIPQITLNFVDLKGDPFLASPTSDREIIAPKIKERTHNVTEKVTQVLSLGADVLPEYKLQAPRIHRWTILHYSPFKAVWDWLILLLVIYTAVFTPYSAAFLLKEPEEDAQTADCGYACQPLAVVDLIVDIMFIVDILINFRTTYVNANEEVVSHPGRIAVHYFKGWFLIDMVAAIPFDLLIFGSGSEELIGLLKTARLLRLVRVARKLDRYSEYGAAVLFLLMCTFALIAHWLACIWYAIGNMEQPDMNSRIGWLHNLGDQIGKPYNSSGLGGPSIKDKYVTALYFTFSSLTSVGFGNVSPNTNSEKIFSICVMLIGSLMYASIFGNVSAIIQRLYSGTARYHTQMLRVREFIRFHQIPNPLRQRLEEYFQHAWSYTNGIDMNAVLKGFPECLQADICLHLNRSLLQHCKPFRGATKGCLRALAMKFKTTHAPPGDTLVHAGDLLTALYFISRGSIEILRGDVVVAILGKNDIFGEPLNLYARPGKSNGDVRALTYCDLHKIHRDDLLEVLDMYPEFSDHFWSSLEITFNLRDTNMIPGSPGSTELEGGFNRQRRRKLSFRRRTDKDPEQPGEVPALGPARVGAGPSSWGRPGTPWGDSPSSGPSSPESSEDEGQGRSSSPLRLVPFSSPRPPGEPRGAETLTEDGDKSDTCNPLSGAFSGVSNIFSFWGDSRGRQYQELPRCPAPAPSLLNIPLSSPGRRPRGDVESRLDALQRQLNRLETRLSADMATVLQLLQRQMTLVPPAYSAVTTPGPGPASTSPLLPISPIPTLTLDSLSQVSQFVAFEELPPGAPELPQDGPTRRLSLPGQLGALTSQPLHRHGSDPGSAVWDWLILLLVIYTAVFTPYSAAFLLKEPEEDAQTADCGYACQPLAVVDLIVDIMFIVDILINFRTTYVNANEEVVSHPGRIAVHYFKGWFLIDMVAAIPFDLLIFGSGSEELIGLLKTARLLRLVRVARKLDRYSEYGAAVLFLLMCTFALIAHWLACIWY
Description: (§1) D. Measurement of IKs IKr and IK1 in Guinea Pig Ventricular Myocytes.
(§2) Guinea pig ventricular myocytes were isolated using a modification of the procedure described by Mitra et al., Am. J. Physiol. 249:H1056-60 (1985). Excised hearts were perfused through the aorta (retrograde fashion) at a rate of 10 ml/min with oxygenated, warmed (37° C.) solutions described below. The heart was initially perfused for 7 minutes with a Tyrode's solution containing, in mM: 132 NaCl, 4 KCl, 1.2 MgCl2, 10 HEPES, 5 glucose, pH=7.2. The heart was then perfused with the same nominally Ca^2+ -free solution containing 150 units/ml Type II collagenase (Worthington) and 0.5 units/ml Type XIV protease (Sigma) for 8 minutes. This perfusate was followed by a Tyrode's solution contianing 0.2 mM CaCl2 (without enzymes) for 5 minutes. […]
(§3) The suction microelectrode technique described by Giles, W. R. and Shibata, E. F., "Voltage clamp of bull-frog cardiac pacemaker cells: a quantitative analysis of potassium currents", J. Physiol. […]
(§4) To record K^+ currents, the cells were bathed in a Ca^2+ -free Tyrode's solution containing 0.4 mM nisoldipine. […] Data was analyzed as % block from control membrane currents.
(§5) Nisoldipine was prepared as a 4 mM stock solution in polyethylne glycol 200. […] At the final concentrations used, neither polyethylene glycol 200 nor dimethyl sulfoxide had any effect on any of the measured membrane currents. […]

[2] = target: T2, IKs (Cavia porcellus, UniProt O70344); assay: Voltage clamp block of IKs in guinea pig ventricular myocytes; conditions: guinea pig ventricle
T2 construct: Guinea pig ventricular myocytes were isolated; endogenous in cells; host or cells: isolated guinea pig ventricular myocytes
T2 sequence (O70344 whole entry): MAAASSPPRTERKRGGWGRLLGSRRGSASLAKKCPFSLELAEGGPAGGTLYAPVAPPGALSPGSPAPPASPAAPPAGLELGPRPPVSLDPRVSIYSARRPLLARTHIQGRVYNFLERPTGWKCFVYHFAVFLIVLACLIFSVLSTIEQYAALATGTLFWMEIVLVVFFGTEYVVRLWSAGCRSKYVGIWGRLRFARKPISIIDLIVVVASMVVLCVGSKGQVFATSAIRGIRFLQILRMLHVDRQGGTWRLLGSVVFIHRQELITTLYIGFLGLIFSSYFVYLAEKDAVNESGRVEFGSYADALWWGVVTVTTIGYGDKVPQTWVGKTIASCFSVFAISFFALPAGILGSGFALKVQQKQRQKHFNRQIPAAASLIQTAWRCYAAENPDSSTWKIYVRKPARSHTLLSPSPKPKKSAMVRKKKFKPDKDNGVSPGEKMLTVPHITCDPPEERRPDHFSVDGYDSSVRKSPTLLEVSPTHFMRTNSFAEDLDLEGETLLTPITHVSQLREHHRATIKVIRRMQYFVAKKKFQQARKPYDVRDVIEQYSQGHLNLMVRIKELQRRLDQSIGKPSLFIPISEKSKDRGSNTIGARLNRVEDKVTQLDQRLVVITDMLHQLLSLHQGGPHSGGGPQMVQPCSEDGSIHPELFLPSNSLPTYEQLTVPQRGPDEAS
T2 sequence (Q60409 whole entry partner): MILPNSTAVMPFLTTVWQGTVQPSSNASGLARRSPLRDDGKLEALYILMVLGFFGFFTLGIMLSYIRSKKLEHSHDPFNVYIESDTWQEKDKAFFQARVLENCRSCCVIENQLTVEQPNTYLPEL
Description: as §1, §2, §3, §4, §5

[3] = test system: IK1; assay: Voltage clamp block of IK1 in guinea pig ventricular myocytes; conditions: 3 μM; guinea pig ventricle
Description: as §1, §2, §3, §4, §5

inhibition at 3 µM [2]: 0%
Structure (SMILES): COc1ccc(-n2nc(Sc3ccc(Cl)cc3)c(C)c(C#N)c2=O)cc1 [C, 6-(4-Chlorophenylthio)-2-(4-methoxyphenyl)-5-methyl-3-oxo-2,3-dihydropyridazine-4-carbonitrile]
inhibition at 3 µM [1]: 8.4% | % Block IK1 [3]: 0%
